The values that follow come from article PMC9314723, “The aqueous stability and interactions of organoruthenium compounds with serum proteins, cell culture medium, and human serum” (Metallomics: Integrated Biometal Science, 2022).

Data set [1] can be described thus: CZE stability study in H2O and 20 mM phosphate buffer (pH 7.4). Type of data set: physicochemical. As to conditions: 200 μM; for Stability in water (peak areas of cationic species constant): complex cations of 2 and 3, or initial aquation products of 1 and 3, CZE over 24 h. The protocol:
Stability studies of complexes 1–3 were carried out in both H2O and 20 mM phosphate buffer (pH 7.4). Stock solutions for the complexes were prepared in methanol (2 mM). The samples were diluted just before the first measurement to a final complex concentration of 200 μM. Tris(acetylacetonato)cobalt(III) [Co(acac)3] was added as an internal standard to all samples at a final concentration of 100 μM. The stability was studied for 24 h by monitoring changes in the peak areas over time.
(§1) All measurements were performed in at least triplicate on a CE system G7100 (Agilent, Waldbronn, Germany) equipped with a long-life deuterium lamp (8 pin) with an radio-frequency identification (RFID) tag. A capillary (fused silica, 50 μm ID, Polymicro Technologies) with a total length of 50 cm and an effective length of 40 cm was installed for the separation with ultraviolet (UV) detection. The capillary zone electrophoresis (CZE)–UV data and peak areas presented were recorded at 200 nm, while the internal standard signal was recorded at 254 nm in the samples containing αMEM and human serum, as other neutral species were overlapping the signal at 200 nm. For HSA binding site studies, 210 nm was selected as the evaluation wavelength.
(§2) New capillaries were conditioned with HCl (0.1 M) and H2O followed by NaOH (1.0 M) and H2O for 10 min each followed by flushing with BGE [phosphate buffer (20 mM, pH 7.4)] for 20 min. The same procedure was carried out as daily conditioning. The capillary was flushed with BGE (3 min) before each run and was rinsed with HCl (0.1 M; 30 s), H2O (30 s), NaOH (1.0 M, 2 min), and H2O (2 min) after each separation. The sample tray and the capillary were kept at 25°C. Samples were injected hydrodynamically (50 mbar for 5 s) and the voltage applied was +20 kV for 5 min. The current reading was 23–24 μA.

Data set [2] addresses T1, HSA (Homo sapiens, UniProt P02768).
T1 construct: purchased Sigma-Aldrich A3782
The data set can be described thus: CZE interaction study with HSA. The class given is binding. The method, then:
(§3) Stock solutions of HSA and Tf in BGE were prepared (400 μM). Studies were performed for 1 and 2 at complex (200 μM):protein ratios of 1:1, 10:1, and 20:1. The PCA complex 3 was investigated at complex (200 μM):protein ratios of 20:1 and 50:1 for HSA and at 10:1 and 20:1 for Tf. Samples were prepared just before the first measurement. BGE was used for dilution and [Co(acac)3] was added as the internal standard to all samples at a final concentration of 100 μM.
as §1, §2

Data set [3] has as its target T2, Tf (Homo sapiens, UniProt P02787).
T2 construct: purchased Sigma-Aldrich
The experiment in a line: CZE interaction study with Tf. The class given is binding. The method, then: as §3, §1, §2

Data set [4] in a line: CZE interaction study with cell culture medium. As to conditions: complex 200 μM, medium diluted 1:10, complex:albumin 133:1. Type of data set: in vitro ADME. The protocol:
The interactions of complexes 1–3 with cell culture medium (αMEM with 5% FBS) were investigated. The αMEM was diluted 1:10 with BGE and the complex concentrations were kept at 200 μM and [Co(acac)3] at 100 μM. The dilution corresponded to a complex:albumin ratio of 133:1.
as §1
(§4) New capillaries were conditioned with HCl (0.1 M) and H2O followed by NaOH (1.0 M) and H2O for 10 min each followed by flushing with BGE [phosphate buffer (20 mM, pH 7.4)] for 20 min. The same procedure was carried out as daily conditioning. […] The current reading was 23–24 μA.

A short description of data set [5]: CZE interaction study with human serum. Type of data set: in vitro ADME. To be noted: complex 200 μM, serum diluted 1:100, complex:albumin about 50:1. The method, then:
The interactions of complexes 1–3 with human serum were investigated after diluting the serum 1:100 with BGE and the complex concentrations were kept at 200 μM and for [Co(acac)3] at 100 μM. The dilution corresponded to a complex:protein ratio of about 50:1 with regard to albumin content.
as §1, §4

The subject of data set [6] is human cancer cells. As to conditions: cited from earlier work.
Data set [7] relates to plectin. The arrangement: method as in earlier work. To be noted: cited from earlier work.
Details of data set [8]: method as in PMID 31357065. To be noted: cited from earlier work.
The subject of data set [9] is HSA and Tf. The arrangement: method as in PMID 15907879. To be noted: cited from earlier work.
The target in data set [10] is T3, HSA binding site II (Homo sapiens, UniProt P02768).
T3 construct: purchased Sigma-Aldrich A1653
The experiment in a line: Competitive displacement study, HSA binding site II (Ds marker), CZE. As to conditions: for % Ds bound: Ds:HSA (100 μM) 2:1, n = 3. The method, then: The affinity of complex 1 for binding sites I and II on HSA was investigated with Wf as the site marker for binding site I and Ds for site II by tracking the peak area for unbound Wf and Ds, respectively. Stock solutions of Wf, Ds, and HSA were prepared in H2O at concentrations of 800, 800, and 200 μM, respectively. Wf or Ds were incubated with HSA (100 μM) at a ratio of 2:1 for at least 1 h at room temperature before complex 1 was added at final concentrations of 200, 400, or 800 μM. The final concentration of methanol was 10% in all samples. Calibration curves for Wf or Ds in the range of 50–300 μM were determined before the start of each displacement study, to allow for accurate quantification of the amounts of Ds or Wf displaced by complex 1.
as §1
(§5) For the binding site studies with HSA, a modified version of a CE method was applied.[21] Before each run, the capillary was flushed with BGE (2 min), then +28 kV voltage was applied for 30 s followed by 1 min of flushing with BGE and the capillary was rinsed with HCl (0.1 M; 2 min), H2O (2 min), NaOH (1.0 M, 2 min), and H2O (2 min) after each separation. The sample tray and the capillary were kept at 25°C. Samples were injected hydrodynamically (30 mbar for 5 s) and the voltage applied was +28 kV for 5 min. The current reading was 34 μA.

The target of data set [11] is T4, HSA binding site I (Homo sapiens, UniProt P02768).
T4 construct: purchased Sigma-Aldrich A1653
The data set can be described thus: Competitive displacement study, HSA binding site I (Wf marker), CZE. As to conditions: for % Wf bound: Wf:HSA (100 μM) 2:1, n = 3. The protocol:
The final concentration of methanol was 10% in all samples.
as §1, §5

In data set [12] the target is T2, Tf. The data set can be described thus: FT-ICR-MS adduct formation with Tf. The class given is binding. As to conditions: complex:Tf 5:1 in water. The method, then:
The adduct formation between complex 1 and Tf was further studied using a Bruker Solarix XR 7 T FT–ICR–MS. A mixture of 1 and Tf in ratio 5:1 in H2O (18 MΩ, Millipore) was incubated for 24 h. A sample was collected after 0 and 24 h, and the samples were frozen until analysis. The samples were diluted 1:100 with 0.1% formic acid in H2O (18 MΩ, Millipore) prior to analysis, producing a final concentration of 2 μM for complex 1 and 0.4 μM for Tf. A separate standard of Tf at 0.4 μM was also prepared and analyzed.

A short description of data set [13]: Aqueous solubility. Type of data set: physicochemical.

Structures are written as SMILES.

T4 sequence (P02768 25-609): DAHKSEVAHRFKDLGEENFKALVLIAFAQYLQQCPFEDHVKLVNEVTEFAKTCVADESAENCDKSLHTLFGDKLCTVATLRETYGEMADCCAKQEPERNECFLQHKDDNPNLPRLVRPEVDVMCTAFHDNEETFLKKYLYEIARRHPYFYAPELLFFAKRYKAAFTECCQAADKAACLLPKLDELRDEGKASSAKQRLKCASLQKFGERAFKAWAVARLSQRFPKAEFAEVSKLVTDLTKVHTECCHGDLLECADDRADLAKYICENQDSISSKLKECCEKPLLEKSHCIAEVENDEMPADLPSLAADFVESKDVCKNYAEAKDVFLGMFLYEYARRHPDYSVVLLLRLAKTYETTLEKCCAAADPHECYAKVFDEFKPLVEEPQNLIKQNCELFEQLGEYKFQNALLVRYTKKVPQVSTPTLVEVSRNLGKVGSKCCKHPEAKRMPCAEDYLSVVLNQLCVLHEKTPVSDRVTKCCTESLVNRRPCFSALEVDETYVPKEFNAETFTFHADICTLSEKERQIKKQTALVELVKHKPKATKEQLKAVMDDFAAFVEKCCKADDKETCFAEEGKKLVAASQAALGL
T1 sequence (P02768 25-609): as above
T3 sequence (P02768 25-609): as above
T2 sequence (P02787 20-698): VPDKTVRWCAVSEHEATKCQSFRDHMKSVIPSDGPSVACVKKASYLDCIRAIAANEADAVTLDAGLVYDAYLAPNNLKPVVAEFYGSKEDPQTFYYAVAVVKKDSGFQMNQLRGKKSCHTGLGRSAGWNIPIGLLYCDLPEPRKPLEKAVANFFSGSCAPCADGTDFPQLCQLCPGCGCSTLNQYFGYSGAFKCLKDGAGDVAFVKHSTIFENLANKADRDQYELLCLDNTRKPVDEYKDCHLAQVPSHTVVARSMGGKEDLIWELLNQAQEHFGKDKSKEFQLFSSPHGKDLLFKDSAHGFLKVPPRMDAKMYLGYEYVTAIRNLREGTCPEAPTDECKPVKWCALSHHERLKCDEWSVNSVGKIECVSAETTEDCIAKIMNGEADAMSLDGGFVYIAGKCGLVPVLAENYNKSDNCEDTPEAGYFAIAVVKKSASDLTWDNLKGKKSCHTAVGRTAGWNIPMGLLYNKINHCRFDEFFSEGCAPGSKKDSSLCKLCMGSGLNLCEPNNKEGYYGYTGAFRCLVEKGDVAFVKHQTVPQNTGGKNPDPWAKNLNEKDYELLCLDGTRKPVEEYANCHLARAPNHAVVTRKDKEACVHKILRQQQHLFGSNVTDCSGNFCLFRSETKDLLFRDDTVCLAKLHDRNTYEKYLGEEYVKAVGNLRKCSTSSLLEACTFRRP

In the case of `Cc1ccc(C(C)C)cc1.Fc1ccc(NC(=S)c2ccccn2)cc1.[Cl-].[Cl-].[Ru+2]` [Complex 3, [Ru^II(cym)(PCA)Cl]Cl], the “Stability in water (peak areas of cationic species constant)” value (from here on “Stability in water”) in data set [1] is “at least 24 h”. Moreover, in [2] (complex (200 μM):HSA 20:1 and 50:1, data not analysable), the “Observation on incubation with HSA” value is given as “precipitation”. Moreover, the “Decrease in Tf peak area” value in data set [3] (complex:Tf 10:1) is recorded as 62%. In data set [3] (complex:Tf 20:1), the “Decrease in Tf peak area” value was determined as 82% and the “Decrease in peak area of complex 3” value was found to be 37%. Further, the “Interaction with αMEM spiked with 5% FBS” value in data set [4] is listed as “precipitation was observed”. Besides, the “Interaction with human serum” value in [5] is on record as “precipitation was observed”. For the same compound, in data set [6], the “IC50 values (antiproliferative properties)” value is recorded as “low micromolar range”. Also, the Protein target result in data set [7] was “specifically target the scaffold protein and cytolinker plectin”.

Regarding `C1N2CN3CN1CP(C2)C3.Cc1ccc(C(C)C)cc1.O=S(=O)([O-])C(F)(F)F.[O-]c1cccc2cccnc12.[Ru+2]` [Complex 2, [Ru^II(cym)(8-HQ)(PTA)](SO3CF3)], the “Stability in water” value in data set [1] is on record as “at least 24 h”. Besides, the “Interaction with HSA” value in data set [2] (complex (200 μM):HSA 1:1, 10:1, 20:1, over 1 d) was “does not interact with either protein”. Also, in data set [3] (complex (200 μM):Tf 1:1, 10:1, 20:1, over 1 d), the “Interaction with Tf” value was “does not interact with either protein”. In addition, in data set [4], the “Interaction with αMEM spiked with 5% FBS” value is listed as “no interactions were observed”. In addition, in data set [5], the “Interaction with human serum” value is listed as “no interactions were observed”. The “Halido/aqua ligand exchange in aqueous environment (1H NMR)” value in data set [8] is reported as “inert”.

With `[Cl-].[Cl-].[Cl-].[Cl-].[Ru+3].c1ccc2[nH][nH+]cc2c1.c1ccc2[nH]ncc2c1.c1ccc2[nH]ncc2c1` [KP1019, Indazolium Trans-[Tetrachlorobis(1H-Indazole)Ruthenate(III)]], the “Relative rate of binding to serum proteins” value in data set [9] is “bind quicker to Tf than HSA”.

Turning to `Cc1ccc(C(C)C)cc1.[Cl-].[O-]c1cccc2cccnc12.[Ru+2]` [Complex 1, [Ru^II(cym)(8-HQ)Cl]], in [1] (migration relative to EOF marker [Co(acac)3]), the “Speciation on dilution with water or BGE” value is listed as “underwent ligand exchange to form a cationic species”. In addition, in [1], the “Stability in water” value is on record as “at least 24 h”. The “Binding to HSA, complex peak” value in [2] (complex (200 μM):HSA 1:1) was “complex peak was not detectable in the first run”. The “Binding to HSA” value in data set [2] (complex (200 μM):HSA 10:1, over 2 h) is “majority of complex 1 was found attached to either protein”. Further, the “Fraction of complex remaining unbound” value in data set [2] (complex (200 μM):HSA 20:1, after 2 h) is listed as “about a quarter to a third”; in data set [3] (complex (200 μM):Tf 20:1, after 2 h), “about a quarter to a third”. Further, the “Binding to Tf, complex peak” value in data set [3] (complex (200 μM):Tf 1:1) is “complex peak was not detectable in the first run”. Moreover, the “Binding to Tf” value in [3] (complex (200 μM):Tf 10:1, over 2 h) is on record as “majority of complex 1 was found attached to either protein”. The “% Ds bound” value in [10] (200 μM complex 1, 0 h) was 44 ± 6%; in data set [10] (200 μM complex 1, 24 h) it was 50 ± 7%; in data set [10] (200 μM complex 1, 48 h), 45 ± 7%; in data set [10] (400 μM complex 1, 0 h) it was 35 ± 7%; in data set [10] (400 μM complex 1, 24 h) it was 19 ± 11%; in data set [10] (400 μM complex 1, 48 h) it was 33 ± 7%. The “% Ds bound” value in [10] (800 μM complex 1, 0 h) is listed as “Fully displaced”; in data set [10] (800 μM complex 1, 24 h) it was “Fully displaced”; in [10] (800 μM complex 1, 48 h), “Fully displaced”. In [10] (at higher molar ratios), the “Binding to site II on HSA (displacement of Ds)” value is “binds to both sites I and II on HSA”. Also, the “% Wf bound” value came out at 58 ± 4% in data set [11] (200 μM complex 1, 0 h); 59 ± 4% in data set [11] (200 μM complex 1, 24 h); 51 ± 4% in data set [11] (200 μM complex 1, 48 h); 26 ± 9% in data set [11] (400 μM complex 1, 0 h); 23 ± 5% in data set [11] (400 μM complex 1, 24 h); 33 ± 8% in data set [11] (400 μM complex 1, 48 h). The “% Wf bound” value is given as “Fully displaced” in data set [11] (800 μM complex 1, 0 h); “Fully displaced” in [11] (800 μM complex 1, 24 h); “Fully displaced” in data set [11] (800 μM complex 1, 48 h). Moreover, the “Binding to site I on HSA (displacement of Wf)” value in data set [11] (at higher molar ratios) was “binds to both sites I and II on HSA”. In addition, the “Adducts formed with Tf” value in [12] (after 24 h) is “[Tf + 3 Ru(cym)(8-HQ)] was dominant”; in [12] (immediately after mixing (0 h)), “adducts with one, two, and three Ru(cym)(8-HQ) moieties attached to the protein”. Moreover, the Aqueous solubility entry in [13] was “limited aqueous solubility”. Further, the “IC50 values (antiproliferative properties)” value in [6] was “low micromolar range”. In data set [8], the “Halido/aqua ligand exchange in aqueous environment (1H NMR)” value is recorded as “undergo halido/aqua ligand exchange quickly”.
